Activity calls are given as the source filed them. The rule behind the calls is not given here.
Assays:
[1] = Cytotoxicity against human HCT116 cells after 72 hrs by cell counting Kit-8 assay; assay type: functional, cell-based; conditions: HCT-116, 72 h
HCT-116 [2] = assay: Induction of DNA damage in human HCT116 cells at S phase at 100 to 200 uM after 24 hrs by gamma-H2AX-staining based-flow cytometry; assay type: functional
[3] = Cell cycle arrest in human HCT116 cells assessed as cells at M phase at 100 to 200 nM after 24 by flow cytometry; conditions: HCT-116
HCT-116 [4] = assay: Induction of DNA damage in human HCT116 cells at G0/G1 phase at 100 to 200 nM after 24 hrs by gamma-H2AX-staining based-flow cytometry
[5] = Cell cycle arrest in human HCT116 cells assessed as increase in accumulation at G2/M phase at 100 to 200 uM after 24 by flow cytometry; assay type: functional, cell-based; conditions: HCT-116
[6] = Cell cycle arrest in human HCT116 cells assessed as decrease in accumulation at S phase at 100 to 200 uM after 24 by flow cytometry; assay type: functional, cell-based; conditions: HCT-116
HCT-116 [7] = assay: Induction of DNA damage in human HCT116 cells at G2/M phase at 100 to 200 uM after 24 hrs by gamma-H2AX-staining based-flow cytometry; assay type: functional
[8] = Cell cycle arrest in human HCT116 cells assessed as increase in accumulation at G2/M phase at 20 uM after 24 by flow cytometry; assay type: functional, cell-based; conditions: HCT-116
[9] = Cell cycle arrest in human HCT116 cells assessed as increase in accumulation at S phase at 20 uM after 24 by flow cytometry; assay type: functional, cell-based; conditions: HCT-116
HCT-116 [10] = assay: Induction of apoptosis in human HCT116 cells assessed as increase in mitosis at 20 uM after 24 by flow cytometry; assay type: functional
HCT-116 [11] = assay: Induction of apoptosis in human HCT116 cells assessed as early-stage apoptotic cells at 15 uM after 24 to 48 hrs by Annexin V/PI-FITC staining based flow cytometry; assay type: functional
HCT-116 [12] = assay: Induction of DNA damage in human HCT116 cells at S phase at 15 to 30 uM after 24 hrs by gamma-H2AX-staining based-flow cytometry; assay type: functional
[13] = Cell cycle arrest in human HCT116 cells assessed as increase in accumulation at G2/M phase at 15 to 30 uM after 24 by flow cytometry; assay type: functional, cell-based; conditions: HCT-116
[14] = Cell cycle arrest in human HCT116 cells assessed as increase in accumulation at S phase at 15 to 30 uM after 24 by flow cytometry; assay type: functional, cell-based; conditions: HCT-116
[15] = Cell cycle arrest in human HCT116 cells assessed as cells at M phase at 15 to 30 uM after 24 by flow cytometry; assay type: functional, cell-based; conditions: HCT-116
HCT-116 [16] = assay: Induction of DNA damage in human HCT116 cells at G2/M phase at 15 to 30 uM after 24 hrs by gamma-H2AX-staining based-flow cytometry; assay type: functional

Compound: COC1=CC(=O)c2c(O)c3c(c(O)c2C1=O)C[C@](C)(O)CC3
- IC50 [1]: 26.8 µM

Compound: C[C@]1(O)Cc2c(O)c3c(c(O)c2[C@@H](O)C1)C(=O)C=C(NCCc1ccccc1)C3=O
- IC50 [1]: 16 µM

Compound: COc1cccc2c1C(=O)c1c(O)c3c(c(O)c1C2=O)C[C@@](O)(C(=O)CO)C[C@@H]3O[C@H]1C[C@H](N)[C@H](O)[C@H](C)O1 [DOXORUBICIN]
- Activity (HCT-116 [2]): 50%
- Activity [3]: inactive
- IC50 [1]: 0.0199 µM
- Activity (HCT-116 [4]): inactive
- Activity [5]: Active
- Activity [6]: Active
- Activity (HCT-116 [7]): 50%

Compound: COC1=CC(=O)c2c(O)c3c(c(O)c2C1=O)C[C@@](C)(O)C[C@@H]3O
- IC50 [1]: 23.7 µM

Compound: CC(=O)O[C@H]1C(=O)[C@@]2(C)[C@H]([C@H](OC(=O)c3ccccc3)[C@]3(O)C[C@H](OC(=O)[C@H](O)[C@@H](NC(=O)c4ccccc4)c4ccccc4)C(C)=C1C3(C)C)[C@]1(OC(C)=O)CO[C@@H]1C[C@@H]2O [PACLITAXEL]
- Activity [8]: Active
- Activity [9]: Active
- fold change (FC) (HCT-116 [10]): 3
- IC50 [1]: 0.0027 µM

Compound: C[C@]1(O)Cc2c(O)c3c(c(O)c2[C@@H](O)C1)C(=O)C=C(NCCc1ccc(Cl)cc1)C3=O
- IC50 [1]: 10.1 µM

Compound: COc1cc(O)c2c(c1O)C(=O)c1cc(C)ccc1C2=O [AUSTROCORTIRUBIN]
- IC50 [1]: > 50 µM

Compound: COC1=CC(=O)c2c(O)c3c(c(O)c2C1=O)C[C@](C)(O)C[C@@H]3O
- Activity (HCT-116 [11]): 75%
- Activity (HCT-116 [12]): 90%
- IC50 [1]: 3.7 µM
- Activity [13]: Active
- Activity [14]: Active
- Activity [15]: inactive
- Activity (HCT-116 [16]): 50%

Reference: ChEMBL document CHEMBL3351762, “The fungal natural product (1S,3S)-austrocortirubin induces DNA damage in HCT116 cells via a mechanism unique from other DNA damaging agents” (Bioorg Med Chem Lett, 2015)
